Where “and” joins values, the source holds several entries; their conditions need not be identical. Identical values can stand only once. Like-named read-outs stand apart in the source and are kept apart here.
Columns and labels:
[1] = Temperature stability at 60° C. and 80° C. in McIlvaine buffer pH 5, absorption maxima
Method: Buffer and atrorosin was mixed for 5 minutes before the solutions were subjected heating in an incubator at 60° C. and 80° C. to colorimetric analysis using spectrophotometer. The absorption maxima at 425 nm and 490 nm were determined in a microtiter plate with a 0.45 cm cell length with buffer as blank. In comparison to the data in Table 3, the absorption spectrum of betanin is determined as above. […] In comparison to Table 5, the absorption spectrum of betanin is determined as above.

[2] = background, literature; cited from earlier work
[3] = Pharmacokinetic profile in rats, IV and PO; type: in vivo; conditions: rat, IV 1 mg/kg
[4] = pH stability in McIlvaine buffer pH 2.2-7.2, absorption maxima by spectrophotometer; type: physicochemical
TA 98 = experiment: mini-Ames (AMES MPF) genotoxicity; type: cell-based
Method: Resulting powder from example 2 was sent to Cyprotox to asses for genotoxicity in a mini-Ames experiment. 43.2 mg of atrorosin was sent to Cyprotox. Mini-Ames test were conducted under the guidelines of OECD.
In comparison to the atrorosin tested above, similar 46.4 mg of carminic acid was also sent to Cyprotox to assess for genotoxicity.

[5] = Pharmacokinetic profile in rats, IV and PO; type: in vivo; conditions: rat, IV 1 mg/kg; for Cmax: read-out: C0/Cmax
Method: Resulting powder from example 2 was sent to Evotec to asses for the pharmacokinetic profile of atrorosin. 6 rats were used, 3 rats for IV injection of atrorosin and 3 rats for PO. The rats were injected or given through mouth gauge 2 mg/kg, and blood samples were taken at regular intervals.
In comparison to example 10, similar carminic acid was also sent to Evotec to assess the pharmacokinetic profile.

[6] = pH stability in McIlvaine buffer pH 2.2-7.2, absorption maxima by spectrophotometer; type: physicochemical; remark: listed apart in the source
Method: In comparison to the pH data for Atrorosin-E of Table 1, the absorption spectrum of carminic acid is determined as above. Its absorption maxima are 495 nm, 525 nm, 565 nm. The pH stability data for carminic acid is shown below in Table 2: […]

## O=C(O)C1=C/C(=C/C=[N+]2/c3cc(O)c(OC4OC(CO)[C@@H](O)C(O)C4O)cc3CC2C(=O)[O-])CC(C(=O)O)N1 (stereo in doubt) [betanin, reference compound]
[1]; 60° C. over 24 hours
  heat stability (in words): degrades significantly
[1]; 60° C., 1 H
  Absorption at 530 nm: 0.26
[1]; 60° C., 2 H
  Absorption at 530 nm: 0.2
[1]; 60° C., 3 H
  Absorption at 530 nm: 0.17
[1]; 60° C., 24 H
  Absorption at 530 nm: 0.05
[1]; 60° C., T0: Start
  Absorption at 530 nm: 0.29
[1]; 80° C. over 3 hours
  heat stability (in words): degrades significantly
[1]; 80° C., 1 H
  Absorption at 530 nm: 0.07
[1]; 80° C., 2 H
  Absorption at 530 nm: 0.05
[1]; 80° C., 3 H
  Absorption at 530 nm: 0.03
[1]; 80° C., 15 min
  Absorption at 530 nm: 0.19
[1]; 80° C., T0: Start
  Absorption at 530 nm: 0.28
[2]
  temperature stability (in words): lack of stability over 40 °C

## Cc1c(C(=O)O)c(O)cc2c1C(=O)c1c(O)c([C@@H]3O[C@H](CO)[C@@H](O)[C@H](O)[C@H]3O)c(O)c(O)c1C2=O [carminic acid, reference compound]
[3]; Mean
  CL/CL_F (plasma clearance): 1.3 ± 0.1 mL/min/kg
[3]; individual rats 1-3
  Tlast: 24 h
  Vdss: 0.3 L/kg
[3]; individual rats 1-3, 1 mg/kg
  AUC0-t: 11431 ng · hr/mL and 12535 ng · hr/mL and 13332 ng · hr/mL and 23216 nM · hr and 25457 nM · hr and 27076 nM · hr
[4]; pH 2.2
  Absorption at 565 nm: 0.771
[4]; pH 3.5
  Absorption at 565 nm: 1.365
[4]; pH 5
  Absorption at 525 nm: 1.834
  Absorption at 565 nm: 1.852
[4]; pH 7.2
  Absorption at 495 nm: 1.625
TA 98; TA 98 +S9, 62.5 μg/ml
  Fold increase (over baseline): 0.42
  mean # pos. Wells: 1.00
TA 98; TA 98 +S9, 125 μg/ml
  Fold increase (over baseline): 0.28
  mean # pos. Wells: 0.67
TA 98; TA 98 +S9, 250 μg/ml
  Fold increase (over baseline): 0.14
  mean # pos. Wells: 0.33
TA 98; TA 98 +S9, 500 μg/ml
  Fold increase (over baseline): 0.00
  mean # pos. Wells: 0.00
TA 98; TA 98 +S9, 1000 μg/ml
  Fold increase (over baseline): 0.00
  mean # pos. Wells: 0.00
TA 98; TA 98 +S9, 2000 μg/ml
  Fold increase (over baseline): 0.14
  mean # pos. Wells: 0.33
TA 98; TA 98 −S9, 62.5 μg/ml
  Fold increase (over baseline): 0.25
  mean # pos. Wells: 0.33
TA 98; TA 98 −S9, 125 μg/ml
  Fold increase (over baseline): 0.51
  mean # pos. Wells: 0.67
TA 98; TA 98 −S9, 250 μg/ml
  Fold increase (over baseline): 0.25
  mean # pos. Wells: 0.33
TA 98; TA 98 −S9, 500 μg/ml
  Fold increase (over baseline): 0.25
  mean # pos. Wells: 0.33
TA 98; TA 98 −S9, 1000 μg/ml
  Fold increase (over baseline): 0.00
  mean # pos. Wells: 0.00
TA 98; TA 98 −S9, 2000 μg/ml
  Fold increase (over baseline): 0.00
  mean # pos. Wells: 0.00
TA 98; mini-Ames study
  genotoxic effects (in words): do not exert any genotoxic effects
[2]
  temperature stability (in words): good temperature stability
[5]; Mean
  C0/Cmax: 8213 ng/mL
  Clast: 13.4 ng/mL
  MRT: 3.5 h
  Vdss: 0.3 L/kg
  t½: 3.5 ± 0.2 h
  Cmax: 16.7 µM
[5]; individual rats 1-3, 1 mg/kg
  AUCinf: 11497 ng · hr/mL and 12597 ng · hr/mL and 13408 ng · hr/mL and 23350 nM · hr and 25583 nM · hr and 27230 nM · hr
  C0/Cmax: 7095 ng/mL and 6542 ng/mL and 11003 ng/mL
  CL/CL_F: 1.4 mL/min/kg and 1.3 mL/min/kg and 1.2 mL/min/kg
  Clast: 12.3 ng/mL and 12.7 ng/mL and 15.3 ng/mL
  MRT: 3.2 h and 3.3 h and 3.9 h
  t½: 3.7 h and 3.4 h (2×)
  Cmax: 14.4 µM and 13.3 µM and 22.3 µM
[6]; pH 2.2
  Absorption at 495 nm: 0.859
  Absorption at 525 nm: 0.88
[6]; pH 3.5
  Absorption at 495 nm: 1.289
  Absorption at 525 nm: 1.404
[6]; pH 5
  Absorption at 495 nm: 1.561
[6]; pH 7.2
  Absorption at 525 nm: 2.171
  Absorption at 565 nm: 2.23

Source: US20230279233A1, “ATROROSINS AS FOOD COLORS” (Chromologics ApS, priority 2020, published 2023)
